Results: paper PMC13422867, “An orally available PfPKG inhibitor blocks Plasmodium’s infection of the liver” (PLOS Pathogens, 2026)

Key:
P. falciparum 3D7 = test: Asexual blood stage growth inhibition, SYBR Green I, 72 h; assay type: cell-based; conditions: Plasmodium falciparum, mean (standard error) of 3 biological replicates
Procedure: (§1) Asexual blood stage P. falciparum strains, including 3D7 and drug-resistant field isolates, were cultured using standard conditions in RPMI 1640 with 0.5% Albumax as described previously. EC₅₀ values were determined using a SYBR Green I fluorescence assay after 72 h of compound exposure. EC50 values were derived by nonlinear regression in GraphPad Prism version 10.

P. falciparum 7G8 = test: as above; assay type: cell-based; conditions: Plasmodium falciparum, mean (standard error) of 3 biological replicates
Procedure: as §1

P. falciparum Dd2-B2 = test: as above; assay type: cell-based; conditions: Plasmodium falciparum, mean (standard error) of 3 biological replicates
Procedure: as §1

P. falciparum K1 = test: as above; assay type: cell-based; conditions: Plasmodium falciparum, mean (standard error) of 3 biological replicates
Procedure: as §1

P. falciparum TM90_C2B = test: as above; assay type: cell-based; conditions: Plasmodium falciparum, mean (standard error) of 3 biological replicates
Procedure: as §1

[1] = system: P. falciparum CamWT and CamC580Y; conditions: ring-stage assays; cited from earlier work
[2] = system: P. falciparum sporozoites; test: Sporozoite infection of primary human hepatocytes, high-content imaging; assay type: cell-based, Plasmodium falciparum
Procedure: Liver stage antimalarial activity was evaluated using sporozoites from P. falciparum (NF54 strain) and P. cynomolgi bastianellii (B strain). P. falciparum-infected Anopheles stephensi mosquitoes were reared at WRAIR, while P. cynomolgi-infected Anopheles dirus mosquitoes were obtained from the Armed Forces Research Institute of Medical Sciences (AFRIMS), Thailand. Sporozoites were isolated by dissecting salivary glands under sterile conditions, followed by gentle mechanical disruption. Freshly isolated sporozoites were immediately used for hepatocyte infection. […]
(§2) Cells were fixed using 4% paraformaldehyde for 20 minutes at room temperature, followed by three PBS washes, and stored at 4°C until further processing. Parasite detection was performed using species-specific primary antibodies, with P. cynomolgi parasites labeled using a mouse monoclonal anti-Plasmodium GAPDH antibody (1.6 μg/mL, European Malaria Reagent Repository) and P. falciparum parasites detected using a rabbit polyclonal anti-PfHSP70 antibody (1:70 dilution, LS Bio, USA). […]
(§3) High-content imaging was performed using the Operetta CLS system (Revvity) and image analysis was performed with Harmony software version 4.9 (Revvity, Waltham, MA, USA). Images were acquired at 10x or 20x magnification using DAPI and TRITC fluorescence channels. […]

P. cynomolgi hypnozoite = test: Hypnozoite formation in primary simian hepatocytes, high-content imaging; assay type: cell-based, Plasmodium cynomolgi
Procedure: (§4) Liver stage antimalarial activity was evaluated using sporozoites from P. falciparum (NF54 strain) and P. cynomolgi bastianellii (B strain). P. falciparum-infected Anopheles stephensi mosquitoes were reared at WRAIR, while P. cynomolgi-infected Anopheles dirus mosquitoes were obtained from the Armed Forces Research Institute of Medical Sciences (AFRIMS), Thailand. Sporozoites were isolated by dissecting salivary glands under sterile conditions, followed by gentle mechanical disruption. Freshly isolated sporozoites were immediately used for hepatocyte infection.
(§5) Primary cryopreserved hepatocytes were selected based on host-parasite compatibility: primary simian hepatocytes (lot OQB) for P. cynomolgi and human hepatocytes (lot BGW) for P. falciparum (BioIVT Inc., Baltimore, MD, USA). Cells were thawed according to the manufacturer’s protocol and seeded into 384-well collagen-coated assay plates (Greiner Bio-One, Monroe, NC, USA) using InVitroGro CP plating medium (BioIVT). Seeding densities were optimized for uniform monolayer formation, and hepatocytes were allowed to adhere for 24–48 hours before infection. Sporozoites were added at a 1:1.1 hepatocyte-to-sporozoite ratio within 48 hours post-seeding. Automated robotic systems were used for media changes and compound additions to ensure assay consistency and minimize variability associated with manual pipetting.
(§6) Test compounds (PfPKG inhibitors) and assay drug controls (KDU-691 and tafenoquine) were solubilized in DMSO or PBS and serially diluted into 8- or 12-point, 2- or 3-fold series, achieving final assay concentrations ranging from 20 µM to 0.019 µM. Compounds were introduced using a calibrated pin tool controlled by robotic arms (V&P Scientific), ensuring a 1:1000 dilution into assay wells. Media were replenished daily with fresh drug-containing HCM. […]
as §2
as §3, with “channels. Following the established protocol, parasites were classified as hypnozoites or schizonts based on fluorescence intensity (mean and maximum), morphological features (cell roundness and size), and segmentation criteria.” for “channels.”

P. cynomolgi schizont = test: Schizont formation in primary simian hepatocytes, high-content imaging; assay type: cell-based, Plasmodium cynomolgi
Procedure: as §4, §5, §6, §2
as §3, with “channels. Following the established protocol, parasites were classified as hypnozoites or schizonts based on fluorescence intensity (mean and maximum), morphological features (cell roundness and size), and segmentation criteria.” for “channels.”

[3] = system: primary human hepatocytes; test: Cellular cytotoxicity, hepatocyte nuclear counts; assay type: cell-based; conditions: cellular cytotoxicity
Text: as §5
Test compounds (PfPKG inhibitors) and assay drug controls (KDU-691 and tafenoquine) were solubilized in DMSO or PBS and serially diluted into 8- or 12-point, 2- or 3-fold series, achieving final assay concentrations ranging from 20 µM to 0.019 µM. […]
High-content imaging was performed using the Operetta CLS system (Revvity) and image analysis was performed with Harmony software version 4.9 (Revvity, Waltham, MA, USA). Images were acquired at 10x or 20x magnification using DAPI and TRITC fluorescence channels. Following the established protocol, parasites were classified as hypnozoites or schizonts based on fluorescence intensity (mean and maximum), morphological features (cell roundness and size), and segmentation criteria. […] Hepatocyte viability was determined by quantifying nuclear counts per well using Hoechst stain intensity thresholds. […] An in-house built Python-based image analysis script identified parasite objects using predefined fluorescence intensity thresholds. […] Parasite size was quantified by calculating the average object area (µm²) of validated parasite structures per well. […] Dose-response inhibition and IC50 were calculated relative to in-plate negative controls (DMSO-treated wells). […]

[4] = system: primary simian hepatocytes; test: Cellular cytotoxicity, hepatocyte nuclear counts; assay type: cell-based
Text: as §5
Test compounds (PfPKG inhibitors) and assay drug controls (KDU-691 and tafenoquine) were solubilized in DMSO or PBS and serially diluted into 8- or 12-point, 2- or 3-fold series, achieving final assay concentrations ranging from 20 µM to 0.019 µM. Compounds were introduced using a calibrated pin tool controlled by robotic arms (V&P Scientific), ensuring a 1:1000 dilution into assay wells. Media were replenished daily with fresh drug-containing HCM. Compounds were added 1-hour post-infection (p.i.) (day 0) and administered daily for 3 days. Cells were fixed on day 6 p.i. of P. falciparum culture and day 8 for P. cynomolgi infected culture, coinciding with liver stage schizont maturation.
High-content imaging was performed using the Operetta CLS system (Revvity) and image analysis was performed with Harmony software version 4.9 (Revvity, Waltham, MA, USA). Images were acquired at 10x or 20x magnification using DAPI and TRITC fluorescence channels. Following the established protocol, parasites were classified as hypnozoites or schizonts based on fluorescence intensity (mean and maximum), morphological features (cell roundness and size), and segmentation criteria. Hepatocyte nuclei were identified using Hoechst 33342 staining. Background signal was captured in uninfected, stained wells and subjected to the same parasite detection algorithm. Estimate erroneous parasite counts were then subtracted from infected well counts. Hepatocyte viability was determined by quantifying nuclear counts per well using Hoechst stain intensity thresholds. […] An in-house built Python-based image analysis script identified parasite objects using predefined fluorescence intensity thresholds. […] Parasite size was quantified by calculating the average object area (µm²) of validated parasite structures per well. […] Dose-response inhibition and IC50 were calculated relative to in-plate negative controls (DMSO-treated wells). […]

CIT = biological target: T1, CIT (Homo sapiens, UniProt O14578); test: KdElect binding affinity assay; conditions: for Kd: read-out: CIT Experimental Kd; for Kd for CIT higher compared to RUPB-61: range over RUPB-18, -34, -69
T1 construct: purchased Eurofins (DiscoverX)
Procedure: (§7) Off-target kinase inhibition was assessed using the DiscoverX scanMAX (Eurofins) panel at 1 µM compound concentration. Binding affinities of CIT, ROCK1 and ROCK2 were evaluated using the KdElect assay (Eurofins).

ROCK1 = biological target: T2, ROCK1 (Homo sapiens, UniProt Q13464); test: KdElect binding affinity assay; conditions: for Kd for ROCK1 higher compared to RUPB-61: range over RUPB-8, -18, -34 and over ROCK1 and ROCK2; for Kd: read-out: ROCK1 Experimental Kd; for ROCK1 Experimental Binding (ΔG): ∆G = -RTln(Kd), 300K
T2 construct: purchased Eurofins (DiscoverX)
Procedure: as §7

ROCK2 = biological target: T3, ROCK2 (Homo sapiens, UniProt O75116); test: KdElect binding affinity assay; conditions: for Kd for ROCK2 higher compared to RUPB-61: range over RUPB-8, -18, -34 and over ROCK1 and ROCK2; for Kd: read-out: ROCK2 Experimental Kd
T3 construct: purchased Eurofins (DiscoverX)
Procedure: as §7

T1 sequence (O14578 whole entry): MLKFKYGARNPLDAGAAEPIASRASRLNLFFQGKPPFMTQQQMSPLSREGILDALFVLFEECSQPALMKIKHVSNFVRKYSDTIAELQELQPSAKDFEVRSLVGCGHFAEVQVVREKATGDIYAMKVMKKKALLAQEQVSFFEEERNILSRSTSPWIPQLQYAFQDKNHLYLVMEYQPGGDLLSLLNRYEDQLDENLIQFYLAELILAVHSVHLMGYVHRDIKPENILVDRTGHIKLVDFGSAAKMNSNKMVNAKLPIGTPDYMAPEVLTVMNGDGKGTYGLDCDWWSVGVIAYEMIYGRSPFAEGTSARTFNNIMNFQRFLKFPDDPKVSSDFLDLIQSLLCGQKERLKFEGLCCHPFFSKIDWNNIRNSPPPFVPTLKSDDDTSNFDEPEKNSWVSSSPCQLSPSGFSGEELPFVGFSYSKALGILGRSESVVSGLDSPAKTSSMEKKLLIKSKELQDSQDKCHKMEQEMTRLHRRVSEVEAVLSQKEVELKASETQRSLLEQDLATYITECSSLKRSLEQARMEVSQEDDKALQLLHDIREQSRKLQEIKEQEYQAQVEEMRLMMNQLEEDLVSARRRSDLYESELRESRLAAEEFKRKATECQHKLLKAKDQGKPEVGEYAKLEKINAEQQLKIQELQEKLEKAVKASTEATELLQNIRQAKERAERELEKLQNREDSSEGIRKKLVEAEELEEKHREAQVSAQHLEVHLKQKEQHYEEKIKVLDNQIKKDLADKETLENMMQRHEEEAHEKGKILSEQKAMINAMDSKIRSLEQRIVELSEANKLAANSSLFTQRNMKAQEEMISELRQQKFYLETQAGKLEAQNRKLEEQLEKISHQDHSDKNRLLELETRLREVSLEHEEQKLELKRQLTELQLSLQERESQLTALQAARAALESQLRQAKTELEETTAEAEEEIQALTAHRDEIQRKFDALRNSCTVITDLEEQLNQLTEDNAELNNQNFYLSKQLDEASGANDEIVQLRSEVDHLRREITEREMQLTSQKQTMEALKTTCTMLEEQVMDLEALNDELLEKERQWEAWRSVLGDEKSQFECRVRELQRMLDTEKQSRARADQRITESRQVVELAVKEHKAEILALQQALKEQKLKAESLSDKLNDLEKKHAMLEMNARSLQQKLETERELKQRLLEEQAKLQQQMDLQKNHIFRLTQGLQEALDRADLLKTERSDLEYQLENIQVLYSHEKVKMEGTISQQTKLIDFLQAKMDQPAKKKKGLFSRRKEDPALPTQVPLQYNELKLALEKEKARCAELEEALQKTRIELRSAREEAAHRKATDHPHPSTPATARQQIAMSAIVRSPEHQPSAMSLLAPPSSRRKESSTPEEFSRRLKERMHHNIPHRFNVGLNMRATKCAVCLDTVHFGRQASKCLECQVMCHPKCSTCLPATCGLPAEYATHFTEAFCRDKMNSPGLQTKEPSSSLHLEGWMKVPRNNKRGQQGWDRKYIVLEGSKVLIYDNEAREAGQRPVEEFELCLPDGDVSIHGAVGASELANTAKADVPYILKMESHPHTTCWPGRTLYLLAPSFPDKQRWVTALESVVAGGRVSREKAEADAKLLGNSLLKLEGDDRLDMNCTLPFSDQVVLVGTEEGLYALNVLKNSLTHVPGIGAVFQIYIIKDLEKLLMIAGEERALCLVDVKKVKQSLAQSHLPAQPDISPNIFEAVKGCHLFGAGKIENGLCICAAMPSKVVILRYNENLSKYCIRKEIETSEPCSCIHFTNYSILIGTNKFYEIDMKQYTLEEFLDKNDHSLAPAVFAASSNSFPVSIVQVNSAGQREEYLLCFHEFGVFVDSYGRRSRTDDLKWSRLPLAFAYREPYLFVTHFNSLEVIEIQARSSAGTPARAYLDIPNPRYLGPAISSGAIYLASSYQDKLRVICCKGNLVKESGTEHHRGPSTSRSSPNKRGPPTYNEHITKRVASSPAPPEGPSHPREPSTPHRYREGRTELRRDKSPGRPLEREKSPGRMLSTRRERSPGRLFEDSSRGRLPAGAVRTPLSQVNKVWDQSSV
T2 sequence (Q13464 whole entry): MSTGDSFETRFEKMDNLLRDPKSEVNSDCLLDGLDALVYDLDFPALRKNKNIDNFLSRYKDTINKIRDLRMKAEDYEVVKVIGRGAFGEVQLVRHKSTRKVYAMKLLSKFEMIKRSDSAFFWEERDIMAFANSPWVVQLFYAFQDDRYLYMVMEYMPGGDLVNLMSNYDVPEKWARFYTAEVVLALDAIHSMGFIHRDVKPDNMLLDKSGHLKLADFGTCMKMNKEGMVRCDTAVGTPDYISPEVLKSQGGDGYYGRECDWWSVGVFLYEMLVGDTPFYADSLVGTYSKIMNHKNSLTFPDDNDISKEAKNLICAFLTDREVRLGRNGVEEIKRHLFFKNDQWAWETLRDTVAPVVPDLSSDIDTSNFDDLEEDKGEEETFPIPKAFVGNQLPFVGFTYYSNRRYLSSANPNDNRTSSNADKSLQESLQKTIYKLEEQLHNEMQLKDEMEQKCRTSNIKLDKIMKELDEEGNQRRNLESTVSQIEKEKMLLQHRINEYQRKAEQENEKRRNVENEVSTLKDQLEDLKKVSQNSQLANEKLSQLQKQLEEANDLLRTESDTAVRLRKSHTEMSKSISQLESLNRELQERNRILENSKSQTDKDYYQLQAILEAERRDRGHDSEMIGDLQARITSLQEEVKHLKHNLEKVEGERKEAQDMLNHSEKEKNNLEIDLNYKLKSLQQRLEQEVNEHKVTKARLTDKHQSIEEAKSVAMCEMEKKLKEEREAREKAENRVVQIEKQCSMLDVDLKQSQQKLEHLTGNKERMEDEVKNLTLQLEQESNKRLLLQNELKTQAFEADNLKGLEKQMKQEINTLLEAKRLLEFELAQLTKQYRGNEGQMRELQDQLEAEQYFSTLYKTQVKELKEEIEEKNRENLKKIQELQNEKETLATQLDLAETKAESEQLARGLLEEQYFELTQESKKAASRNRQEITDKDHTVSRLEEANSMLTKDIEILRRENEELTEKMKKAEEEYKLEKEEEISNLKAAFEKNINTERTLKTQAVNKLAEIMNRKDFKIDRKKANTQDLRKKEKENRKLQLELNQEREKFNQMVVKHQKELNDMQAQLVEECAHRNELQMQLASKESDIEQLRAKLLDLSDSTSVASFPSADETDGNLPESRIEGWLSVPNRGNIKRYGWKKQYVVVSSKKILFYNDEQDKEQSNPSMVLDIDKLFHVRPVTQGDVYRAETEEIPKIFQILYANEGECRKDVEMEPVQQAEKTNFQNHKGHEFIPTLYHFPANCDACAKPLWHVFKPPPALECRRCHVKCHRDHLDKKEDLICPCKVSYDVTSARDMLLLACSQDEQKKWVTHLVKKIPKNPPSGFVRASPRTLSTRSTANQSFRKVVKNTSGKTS
T3 sequence (O75116 whole entry): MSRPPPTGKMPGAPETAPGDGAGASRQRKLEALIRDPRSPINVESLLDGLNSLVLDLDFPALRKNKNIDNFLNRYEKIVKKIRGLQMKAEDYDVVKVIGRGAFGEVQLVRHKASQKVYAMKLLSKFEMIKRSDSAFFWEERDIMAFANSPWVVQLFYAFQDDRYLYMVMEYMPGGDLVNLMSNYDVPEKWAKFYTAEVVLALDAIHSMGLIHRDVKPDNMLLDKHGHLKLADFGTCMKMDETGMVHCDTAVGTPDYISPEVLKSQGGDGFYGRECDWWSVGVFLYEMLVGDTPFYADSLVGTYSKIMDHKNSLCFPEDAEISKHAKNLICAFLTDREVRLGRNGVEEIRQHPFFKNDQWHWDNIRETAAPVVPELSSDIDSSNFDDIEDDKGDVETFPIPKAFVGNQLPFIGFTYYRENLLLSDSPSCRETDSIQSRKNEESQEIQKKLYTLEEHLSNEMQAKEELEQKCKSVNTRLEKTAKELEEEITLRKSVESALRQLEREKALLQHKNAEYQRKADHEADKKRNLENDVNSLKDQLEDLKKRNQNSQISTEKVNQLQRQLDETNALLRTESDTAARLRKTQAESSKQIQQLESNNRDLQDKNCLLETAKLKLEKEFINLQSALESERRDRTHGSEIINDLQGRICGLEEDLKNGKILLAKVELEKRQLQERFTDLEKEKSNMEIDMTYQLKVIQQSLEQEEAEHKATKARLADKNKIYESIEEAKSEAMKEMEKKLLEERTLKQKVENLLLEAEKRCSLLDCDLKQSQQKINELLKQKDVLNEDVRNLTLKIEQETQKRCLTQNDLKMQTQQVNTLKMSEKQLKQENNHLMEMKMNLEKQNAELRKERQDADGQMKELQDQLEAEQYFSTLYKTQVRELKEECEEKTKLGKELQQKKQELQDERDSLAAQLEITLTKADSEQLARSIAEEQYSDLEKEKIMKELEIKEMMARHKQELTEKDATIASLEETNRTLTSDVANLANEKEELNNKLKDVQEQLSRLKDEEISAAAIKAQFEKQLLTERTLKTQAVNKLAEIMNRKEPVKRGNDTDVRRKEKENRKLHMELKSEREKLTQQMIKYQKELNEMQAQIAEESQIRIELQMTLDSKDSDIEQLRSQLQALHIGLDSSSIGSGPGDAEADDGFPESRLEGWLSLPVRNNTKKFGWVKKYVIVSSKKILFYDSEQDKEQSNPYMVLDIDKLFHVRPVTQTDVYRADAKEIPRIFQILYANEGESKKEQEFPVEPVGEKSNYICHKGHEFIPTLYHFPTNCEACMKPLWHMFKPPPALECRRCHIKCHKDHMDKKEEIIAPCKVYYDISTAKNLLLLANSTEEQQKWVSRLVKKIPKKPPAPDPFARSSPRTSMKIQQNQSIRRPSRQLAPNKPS

Row | Kd (CIT) [nM] | Kd for ROCK1 higher compared to RUPB-61 (ROCK1) | Kd (ROCK1) [nM] | ROCK1 Experimental Binding (ΔG) (ROCK1) [kcal/mol] | Kd for ROCK2 higher compared to RUPB-61 (ROCK2) | Kd (ROCK2) [nM] | Kd for CIT higher compared to RUPB-61 (CIT) | Structure (SMILES) | IC50 (P. falciparum 3D7) [nM] | IC50 (P. falciparum 7G8) [nM] | IC50 (P. falciparum Dd2-B2) [nM] | IC50 (P. falciparum K1) [nM] | other results
1 | 12 | 40–700 fold | 780 | -8.4 | 40–700 fold | 1100 | – | CN1CCC(c2cc(-c3ccncc3C#N)c(-c3ccc(F)cc3)[nH]2)CC1 [RUPB-8] | – | – | – | – | –
2 | 25 | 40–700 fold | 700 | -8.4 | 40–700 fold | 560 | 5–125 fold | CN1CCC(c2[nH]c(-c3ccc(F)cc3)c(-c3ccncc3)c2C#N)CC1 [RUPB-18] | – | – | – | – | –
3 | 620 | 40–700 fold | 9200 | -6.9 | 40–700 fold | 6400 | 5–125 fold | COc1ccc(-c2[nH]c(C3CCN(C)CC3)cc2-c2ccncc2)cc1 [RUPB-34] | – | – | – | – | –

The remaining lines, values behind:

Row | Structure (SMILES) | Kd (CIT) [nM] | Kd for ROCK1 higher compared to RUPB-61 (ROCK1) | Kd (ROCK1) [nM] | ROCK1 Experimental Binding (ΔG) (ROCK1) [kcal/mol] | Kd for ROCK2 higher compared to RUPB-61 (ROCK2) | Kd (ROCK2) [nM] | Kd for CIT higher compared to RUPB-61 (CIT) | IC50 (P. falciparum 3D7) [nM] | IC50 (P. falciparum 7G8) [nM] | IC50 (P. falciparum Dd2-B2) [nM] | IC50 (P. falciparum K1) [nM] | other results
4 | C[C@H]1CN(C)CC[C@@H]1c1cc(-c2ccncc2)c(-c2ccc(F)cc2)[nH]1.Cl.Cl [RUPB-59, 4-{5-[(3R,4S)-1,3-Dimethylpiperidin-4-yl]-2-(4-fluorophenyl)-1H-pyrrol-3-yl}pyridine Dihydrochloride] | – | – | – | – | – | – | – | 80 | 135 | 353 | 148 | IC50 (P. falciparum TM90_C2B): 120 nM; IC50 against DHA-sensitive CamWT compared with DHA-resistant CamC580Y [1]: similar
5 | C[C@H]1[C@@H](O)O[C@@H]2O[C@@]3(C)CC[C@H]4[C@H](C)CC[C@@H]1[C@@]24OO3 [DHA, dihydroartemisinin, reference compound] | – | – | – | – | – | – | – | 2 | 0.5 | 3 | 2 | –
6 | CNC(=O)c1ccc(-c2cnc3cnc(C(=O)N(C)c4ccc(Cl)cc4)cn23)cc1 [KDU-691] | – | – | – | – | – | – | – | – | – | – | – | IC50 [2]: 51 nM; IC50 (P. cynomolgi hypnozoite): 110 nM; IC50 (P. cynomolgi schizont): 42 nM; CC50 [3]: > 10 µM; CC50 [4]: > 10 µM
